Reference: ChEMBL document CHEMBL1201862, “PubChem BioAssay data set” (2004)
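The compound was tested at five concentrations on cells cultured in 96-well plates, with a 48-hour exposure period. GI50 marks 50% less growth.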 Active and inactive are the calls of the source. Cut-off read from the data, not from the text of the source: active = GI50 up to about 1.1 µM and inactive = higher.

Key:
Assay in all cases: NCI-60 cell line screen, 48 h
[1] = tested on: ACHN
[2] = tested on: HCT-116
[3] = tested on: KM12
[4] = tested on: MCF7
[5] = tested on: MDA-MB-231
[6] = tested on: MDA-MB-435
[7] = tested on: MDA-N
[8] = tested on: NCI-H522
[9] = tested on: NCI/ADR-RES
[10] = tested on: OVCAR-5
[11] = tested on: SF-295
[12] = tested on: SF-539
[13] = tested on: SK-MEL-2
[14] = tested on: SK-MEL-5
[15] = tested on: BT-549

Measured: GI50

Cc1cccc(NC(=S)N/N=C2\C(=O)Nc3ccccc32)c1
inactive: [1] 43.1 µM | [2] 44.9 µM | [3] 39 µM | [4] > 100 µM | [5] > 100 µM | [6] 80.4 µM | [7] > 100 µM | [8] > 100 µM | [9] 29.9 µM | [10] > 100 µM | [11] 56.9 µM | [12] 48.3 µM | [13] 70.6 µM | [14] 23.3 µM

O=C(Nc1nc2c(=O)[nH]cnc2s1)c1ccccc1
inactive: [1] 91 µM | [15] > 100 µM | [2] > 100 µM | [4] 45.6 µM | [6] 88.5 µM | [8] > 100 µM | [9] > 100 µM | [10] > 100 µM | [11] > 100 µM | [12] > 100 µM | [13] > 100 µM | [14] > 100 µM

O=C1OC(c2ccccc2Br)=N/C1=C/c1ccccc1
inactive: [1] 27.5 µM | [2] 37.2 µM | [3] 19 µM | [4] 57.1 µM | [5] 40.7 µM | [6] 29.2 µM | [7] 25.4 µM | [8] 26 µM | [10] 40.2 µM | [11] 34.1 µM | [12] 18.5 µM | [13] 18.8 µM | [14] 35.2 µM

COC(=O)C1(F)C(=O)NC(=O)NC1O (stereo unspecified)
inactive: [1] > 75 µM | [2] 50.8 µM | [3] 50.2 µM | [4] 10.7 µM | [5] > 100 µM | [6] > 100 µM | [7] > 100 µM | [8] > 100 µM | [9] > 100 µM | [10] > 100 µM | [11] > 100 µM | [12] 25.4 µM | [13] > 100 µM | [14] > 100 µM

CC1(C)C2CCC1(C)[C@H](O)[C@H]2Nc1cc(C(F)(F)F)cc(C(F)(F)F)c1 (stereo partly specified)
inactive: [1] > 100 µM | [15] 3.91 µM | [2] 2.72 µM | [3] 2.88 µM | [4] > 100 µM | [5] 4.53 µM | [6] 3.42 µM | [9] 3.07 µM | [10] 7.41 µM | [11] 2.37 µM | [12] 4.66 µM | [13] 2.35 µM | [14] 5.38 µM

CC(CO)(CO)N1C(=O)C2C3C=CC(C3)C2C1=O (stereo unspecified)
inactive: [1] > 100 µM | [2] > 100 µM | [3] > 100 µM | [4] > 100 µM | [5] > 100 µM | [6] > 100 µM | [7] > 100 µM | [8] > 100 µM | [9] > 100 µM | [10] > 100 µM | [11] > 100 µM | [12] > 100 µM | [13] > 100 µM | [14] > 100 µM

CCC1C(=O)C[C@H]2[C@@H]3C(O)CC4=CC(=O)CC[C@]4(C)[C@H]3CC[C@]12C (stereo partly specified)
inactive: [1] > 50 µM | [2] > 50 µM | [3] > 50 µM | [4] > 50 µM | [5] > 50 µM | [6] > 50 µM | [8] > 50 µM | [9] > 50 µM | [10] > 50 µM | [11] > 50 µM | [12] > 50 µM | [13] > 50 µM | [14] > 50 µM

C/C(CC(O)(C(F)(F)F)C(F)(F)F)=N/Nc1ccc([N+](=O)[O-])cc1[N+](=O)[O-]
inactive: [1] 2.56 µM | [2] 1.75 µM | [3] 3.21 µM | [4] 2.97 µM | [5] 2.28 µM | [6] 3.15 µM | [7] 4.46 µM | [8] 2.07 µM | [9] 2.85 µM | [11] 4.1 µM | [12] 3.78 µM | [13] 2.28 µM | [14] 1.68 µM
